According to patent US20250382346A1, “NEURONAL PROMOTERS AND USES THEREOF” (priority 2023, published 2025):

Tested on: hM3Dq or rM3Ds
Test: Locomotion test in macaques after nigral DREADD AAV and CNO
Format: in vivo
Procedure: To guide the virus injection in SNr, a guide grid of multiple holes spaced by 1 mm was installed on each subject vertically above the SN. By filling vitamin E in these holes, the accurate coordinates for injection could be obtained from the T1-weighted MRI images (3T Tim Trio scanner, Siemens). Virus injections were performed in nine sites covering the whole SNr, and a total volume of 27 μL virus was unilaterally injected in the right SNr at the speed of 300 nL/min.
To intracranially administrate drug and/or perform electrophysiological recording, a recording chamber covering from anterior caudate to posterior GPi was fixed on the skull with 6 titanium screws and dental cement. Each subject was allowed to recover from the surgery for at least 6 weeks prior to further studies.
Locomotion Test: The locomotion tests for monkeys were conducted in a custom-made observation cage (100 cm×100 cm×100 cm). The top and front of the cage were made of toughened glass in order to gain a clear view for behavioral recording. Monkeys were habituated to the observation cage by placing them inside for 30 minutes on three separate days.
For monkeys injected with AAV8R12-G88P3-HA-hM3Dq, CNO was intracranially infused into the dorsomedial caudate through the recording chamber. To infuse while the animal was awake, the monkey was trained to sit in a primate chair specially designed with its head fixed to the primate chair by a mask made of thermoplastic materials. Injections were conducted through a 33-Gauge needle connected to a 250 μL syringe via a polyethylene pipe (Hamilton, Neuros). […] The needle was held for 5 minutes for drug diffusion before retraction. For monkeys injected with AAV8R12-G88P7-rM3Ds-2A-EYFP, CNO was infused via intramuscular injection (10 mg/kg). […] Videos capturing the subjects' behavior were recorded for at least 90 minutes. Animal behaviors from 30-90 minutes after saline/CNO infusion were further analyzed and quantified.
For rotation analysis, only movements that occurred lower than 30 cm on the z-axis were counted. To determine the direction of the rotation, we first computed the center for the rotation data in the x-y plane as (x0, y0) by averaging all data points, and then we computed the angle relative to (x0, y0) for each time point by the following formula:
where θi represents the rotating angle at time i, and (xi, yi) represents the x-y coordinate at time i. We then calculated the change of rotating angle as Δθi=θi−θi−1. For right nigral injections, when Δθ<0, the direction of the rotation was anticlockwise and was labeled as a contraversive rotation. When Δθ>0, the direction of the rotation was clockwise and was labeled as an ipsiversive rotation. The raw data were analyzed and plotted through a custom R package. Code is available on Github (github.com/chenyef/PD_ana/blob/main/Behavior_ana.txt).

C[N+]1([O-])CCN(C2=Nc3cc(Cl)ccc3Nc3ccccc32)CC1 [CNO, Clozapine-N-oxide]
muscle tone, electromyogram recordings (following CNO infusions, macaques): increase in the muscle tone of the contralateral biceps brachii | contraversive rotations (FIG. 10C), mean±SEM (hM3Dq (intracranial CNO) or rM3Ds (systemic CNO) macaques, n=4, saline 1.004±0.2667): 6.649±1.662 | velocity of ipsiversive rotations (FIG. 10H), mean±SEM (n=4 macaques, saline 37.43±3.264, not significant): 41.37±6.566 | speed during contraversive rotations (FIG. 10G), mean±SEM (n=4 macaques, saline 38.42±5.465): 46.98±6.669 | time in the top portion of the observing cage (FIG. 10D), mean±SEM (n=4 macaques, saline 68.42±10.7): 33.74±2.641 | total distance (FIG. 10F), mean±SEM (n=4 macaques, saline 71.53±15.4, not significant): 97.37±19.41 | immobile time (FIG. 10E), mean±SEM (n=4 macaques, saline 107.1±2.322, not significant): 89.13±8.379
